Values after ≈ are worked out from the molar mass of the structure shown. Where a name gives a salt, the structure may show the parent alone.
Columns and labels:
[1] = tested on: Bacteroides fragilis sp. fragilis 111; experiment: Agar dilution susceptibility of anaerobic bacteria (Chart 1); type: cell-based
[2] = tested on: Peptococcus asaccharolyticus 1302; experiment: as above; type: cell-based; conditions: Peptoniphilus asaccharolyticus, 1302, 24 h, read-out: 24 Hr. MIC
[3] = tested on: Actinomyces israelii W855; experiment: as above; type: cell-based; conditions: 24 h, agar dilution, 37° C., read-out: 24 Hr. MIC
[4] = tested on: Bacteroides fragilis sp. fragilis 2; experiment: as above; type: cell-based; conditions: Bacteroides fragilis, 24 h, read-out: 24 Hr. MIC
[5] = tested on: Bacteroides corrodens 1874; experiment: as above; type: cell-based; conditions: Eikenella corrodens, 1874, 24 h, read-out: 24 Hr. MIC
[6] = tested on: Bacteroides fragilis sp. fragilis 103; experiment: as above; type: cell-based
[7] = tested on: Peptostreptococcus intermedius 1264; experiment: as above; type: cell-based; conditions: Peptostreptococcus, 1264, 24 h, read-out: 24 Hr. MIC
[8] = tested on: Bacteroides fragilis sp. fragilis 1936B; experiment: as above; type: cell-based; conditions: Bacteroides fragilis, 24 h, read-out: 24 Hr. MIC
[9] = tested on: Bacteroides fragilis sp. fragilis 1877; experiment: as above; type: cell-based
[10] = tested on: Bacteroides fragilis sp. fragilis 1451; experiment: as above; type: cell-based; conditions: Bacteroides fragilis, 24 h, read-out: 24 Hr. MIC
[11] = tested on: Bacteroides fragilis sp. fragilis 108; experiment: as above; type: cell-based
[12] = tested on: Bacteroides fragilis sp. fragilis 107; experiment: as above; type: cell-based; conditions: Bacteroides fragilis, 24 h, read-out: 24 Hr. MIC
[13] = tested on: Bacteroides melaninogenicus 2736; experiment: as above; type: cell-based; conditions: 2736, 24 h, read-out: 24 Hr. MIC
[14] = tested on: Bacteroides fragilis sp. fragilis 110; experiment: as above; type: cell-based
[15] = tested on: Bacteroides fragilis sp. fragilis 1874; experiment: as above; type: cell-based
[16] = tested on: Bacteroides fragilis sp. fragilis 9; experiment: as above; type: cell-based
[17] = tested on: Bacteroides fragilis sp. thetaiotaomicron 1438; experiment: as above; type: cell-based
Peptococcus prevoti 1281 = experiment: as above; type: cell-based; conditions: 24 h, read-out: 24 Hr. MIC, agar dilution, 37° C.
[18] = tested on: Bacteroides fragilis sp. fragilis 1470; experiment: as above; type: cell-based
[19] = tested on: Clostridium septicum 1128; experiment: as above; type: cell-based; conditions: Clostridium septicum, 1128, 24 h, 37° C.
Procedure: The susceptibility of anaerobic bacteria, both gram positive and gram negative, to a representative number of the novel compounds of this application was determined using the agar dilution method. The bacteria used were isolated from patients hospitalized at the Indiana Univerisity Medical Center. The isolates were identified in the anaerobe laboratory of the Medical Center by the criteria established by Dowell et al., Laboratory Methods in Anaerobic Bacteriology. Public Health Serv. Publ. NO. 1803 (1968) [Center for Disease Control, Atlanta, Ga.]; and by Smith et al., The Pathogenic Anaerobic Bacteria, pages 96- 136 (1968) [Charles C. Thomas, Publisher, Springfield, Ill.]. All the organisms were maintained in chopped meat glucose medium (Scott Labs) at room temperature.
The method used for the agar dilution tests was based on the studies of Sutter et al., Antimicrob. Ag. Chemother. 3, 188-193 (1973). The strains of anaerobic bacteria were grown in 16×× 120 mm. tubes for 16 to 18 hours in Thioglycolate medium without indicator-- 135C (Becton, Dickinson and Co.), to which was added 5 mcg. of hemin per milliliter prior to autoclaving, plus 1 mg. of sodium bicarbonate and 0.1 mcg. of filter-sterilized menadione per milliliter after autoclaving. The strains were adjusted to the turbidity of the No. 1 McFarland standard in Thioglycolate medium without indicator-- 135C containing an additional 0.13 percent Bacto-agar (Difco). Each strain was then applied to the surface of the petri plate (100 mm× 15 mm.) by means of a replicator.
For the agar dilution studies, two-fold dilutions of the test compounds were prepared in deionized water to which was then added laked sheep blood and filter-sterilized menadione so the concentrations after the agar dilution were 5 percent and 10 mcg./ml. respectively. An equal volume of double strength Brucella agar (Becton, Dickinson and Co.) was mixed with each dilution in a water bath held at 50° C. and then poured onto the petri dishes.
All of the procedures were done inside a plastic glove box, except for the incubation of the growth tubes and the pouring of the plates. After the plates hardened, they were put inside the glove box for a minimum of 2 hours before they were inoculated. Generally, the glove box procedures of Aranki et al., Applied Microbiology 17, 568-576 (1969), were followed, but the following modifications were used. Dry materials were introduced into the glove box by evacuating the lock to 28 inches of mercury and filling once with nitrogen gas, followed by evacuating in the same manner and filling with an 80 percent nitrogen plus 10 percent CO2 plus 10 percent hydrogen gas mixture. Liquid media and agar plates were introduced into the glove box by evacuating the lock to 10 inches of mercury and filling with gas four times. The nitrogen gas was used to fill the lock for the first two cycles of evacuation, with the gas mixture described above used for the final two fillings.
All the plates were incubated at 37° C. in Gas Pak jars (Becton, Dickinson and Co.) containing palladium-coated alumina catalysts (reactivated after each use). The results of the agar dilution tests were read after about 24 hours of incubation. The minimum inhibitory concentration (MIC) was recorded as the lowest concentration of test compound at which there was no growth.
The test compounds are identified by the number of the example describing their preparation. The antibiotics clindamycin (C), and erythromycin (E) were also run simultaneously with the novel compounds of this application,for comparison purposes, and the results are included in Chart 1 below.

[20] = tested on: Eubacterium aerofaciens 1235; experiment: as above; type: cell-based; conditions: Collinsella aerofaciens, 1235, 24 h, read-out: 24 Hr. MIC
[21] = tested on: Fusobacterium symbiosum 1470; experiment: as above; type: cell-based; conditions: Fusobacterium, 1470, 24 h, read-out: 24 Hr. MIC
[22] = tested on: Bacteroides fragilis sp. vulgatis 1563; experiment: as above; type: cell-based
[23] = tested on: Peptostreptococcus anaerobius 1428; experiment: as above; type: cell-based; conditions: Peptostreptococcus anaerobius, 1428, 24 h, read-out: 24 Hr. MIC
[24] = tested on: Propionibacterium acnes 79; experiment: as above; type: cell-based; conditions: Cutibacterium acnes, 79, 24 h, read-out: 24 Hr. MIC
[25] = tested on: Bacteroides fragilis sp. fragilis 62; experiment: as above; type: cell-based
[26] = tested on: Bacteroides fragilis sp. fragilis 106; experiment: as above; type: cell-based
[27] = tested on: Fusobacterium necrophorum 6054A; experiment: as above; type: cell-based; conditions: Fusobacterium necrophorum, 6054A, 24 h, read-out: 24 Hr. MIC
[28] = tested on: Bacteroides fragilis sp. fragilis 112; experiment: as above; type: cell-based
[29] = tested on: Bacteroides vulgatis 1211; experiment: as above; type: cell-based; conditions: Bacteroides, 1211, 24 h, read-out: 24 Hr. MIC
[30] = tested on: Bacteroides fragilis sp. fragilis 104; experiment: as above; type: cell-based; conditions: Bacteroides fragilis, 24 h, read-out: 24 Hr. MIC
[31] = tested on: Clostridium perfringens 81; experiment: microbe, parasite or virus in culture; type: cell-based; conditions: Clostridium perfringens, 81, 24 h, read-out: 24 Hr. MIC, agar dilution, 37° C.
[32] = tested on: Bacteroides melaninogenicus 1856/28; experiment: Agar dilution susceptibility of anaerobic bacteria (Chart 1); type: cell-based; conditions: Prevotella intermedia, 1856/28, 24 h, read-out: 24 Hr. MIC
[33] = tested on: Bacteroides fragilis sp. fragilis 113; experiment: as above; type: cell-based
[34] = tested on: Bacteroides fragilis sp. thetaiotaomicron 1900A; experiment: as above; type: cell-based
Salmonella typhimurium = experiment: Control of infections caused by Salmonella typhimurium in chickens (Chart 2); type: in vivo; conditions: 60 mg./kg. subcutaneous, day-old chicks, 5 per group, 6 days observation
Procedure: The efficacy of the novel compounds in the control of infections caused by Salmonella typhimurium in chickens was evaluated in the following manner. The test was carried out using day-old chicks weighing approximately 35 g. each. The chicks were divided into groups of 5 chicks per each dosage level. A portion of the chicks received the test compound which was suspended in 0.2 ml. of polyethylene glycol 200 and administered subcutaneously in the neck. […] All the chicks were challenged with a 1:200 dilution of a culture of the organism, 0.1 ml. of the dilution being injected into each chick in the leg intramuscularly. […] The test compounds are identified in the same manner as set forth in experiment 1. In the chart, column 1 lists the compounds tested; column 2, the dosage of test compound in mg./kg.; and column 3, the survival ratio.

[35] = Bacteroides fragilis, 24 h, read-out: 24 Hr. MIC

## CC[C@H]1OC(=O)[C@H](C)[C@@H](O[C@H]2C[C@@](C)(OC)[C@@H](O)[C@H](C)O2)[C@H](C)[C@@H](O[C@@H]2O[C@H](C)C[C@H](N(C)C)[C@H]2O)[C@](C)(O)C[C@@H](C)C(=O)[C@H](C)[C@@H](O)[C@]1(C)O [E, erythromycin, reference compound]
[1]; [35]
  MIC: 2 µg/mL (≈ 2.73 µM)
[2]
  MIC: 1 µg/mL (≈ 1.36 µM)
[3]
  MIC: ≤ 0.5 µg/mL
[4]
  MIC: 4 µg/mL (≈ 5.45 µM)
[5]
  MIC: ≤ 0.5 µg/mL
[6]; [35]
  MIC: 4 µg/mL (≈ 5.45 µM)
[7]
  MIC: ≤ 0.5 µg/mL
[8]
  MIC: 2 µg/mL (≈ 2.73 µM)
[9]; [35]
  MIC: 2 µg/mL (≈ 2.73 µM)
[10]
  MIC: 0.5 µg/mL (≈ 0.681 µM)
[11]; [35]
  MIC: 2 µg/mL (≈ 2.73 µM)
[12]
  MIC: 2 µg/mL (≈ 2.73 µM)
[13]
  MIC: 1 µg/mL (≈ 1.36 µM)
[14]; [35]
  MIC: 16 µg/mL (≈ 21.8 µM)
[15]; [35]
  MIC: 0.5 µg/mL (≈ 0.681 µM)
[16]; [35]
  MIC: 4 µg/mL (≈ 5.45 µM)
[17]; [35]
  MIC: 1 µg/mL (≈ 1.36 µM)
Peptococcus prevoti 1281
  MIC: > 128 µg/mL
[18]; [35]
  MIC: 8 µg/mL (≈ 10.9 µM)
[19]
  MIC: 1 µg/mL (≈ 1.36 µM)
[20]
  MIC: ≤ 0.5 µg/mL
[21]
  MIC: ≤ 0.5 µg/mL
[22]; [35]
  MIC: 1 µg/mL (≈ 1.36 µM)
[23]
  MIC: ≤ 0.5 µg/mL
[24]
  MIC: ≤ 0.5 µg/mL
[25]; [35]
  MIC: 8 µg/mL (≈ 10.9 µM)
[26]; [35]
  MIC: 4 µg/mL (≈ 5.45 µM)
[27]
  MIC: 8 µg/mL (≈ 10.9 µM)
[28]; [35]
  MIC: 32 µg/mL (≈ 43.6 µM)
[29]
  MIC: 1 µg/mL (≈ 1.36 µM)
[30]
  MIC: 2 µg/mL (≈ 2.73 µM)
[31]
  MIC: 1 µg/mL (≈ 1.36 µM)
[32]
  MIC: 4 µg/mL (≈ 5.45 µM)
[33]; [35]
  MIC: 2 µg/mL (≈ 2.73 µM)
[34]; [35]
  MIC: > 64 µg/mL

## CCOC(=O)C(=O)Nc1c(C#N)c(-c2ncc([N+](=O)[O-])n2C)nn1C [Example 3, N-[4-Cyano-1-methyl-3-(1-methyl-5-nitroimidazol-2-yl)pyrazol-5-yl]oxamic acid, ethyl ester, potassium salt]
[1]; agar dilution, 37° C., Bacteroides fragilis sp. fragilis 111, potassium salt
  24 Hr. MIC: 0.25 µg/mL
[6]; agar dilution, 37° C., Bacteroides fragilis sp. fragilis 103, potassium salt
  24 Hr. MIC: 0.125 µg/mL
[9]; agar dilution, 37° C., Bacteroides fragilis sp. fragilis 1877, potassium salt
  24 Hr. MIC: 0.25 µg/mL
[11]; agar dilution, 37° C., Bacteroides fragilis sp. fragilis 108, potassium salt
  24 Hr. MIC: 0.25 µg/mL
Salmonella typhimurium; potassium salt
  Survival Ratio: 3/5
[14]; agar dilution, 37° C., Bacteroides fragilis sp. fragilis 110, potassium salt
  24 Hr. MIC: 0.5 µg/mL
[15]; agar dilution, 37° C., Bacteroides fragilis sp. fragilis 1874, potassium salt
  24 Hr. MIC: 0.25 µg/mL
[16]; agar dilution, 37° C., Bacteroides fragilis sp. fragilis 9, potassium salt
  24 Hr. MIC: 0.25 µg/mL
[17]; agar dilution, 37° C., Bacteroides fragilis sp. thetaiotaomicron 1438, potassium salt
  24 Hr. MIC: 0.5 µg/mL
[18]; agar dilution, 37° C., Bacteroides fragilis sp. fragilis 1470, potassium salt
  24 Hr. MIC: 0.25 µg/mL
[22]; agar dilution, 37° C., Bacteroides fragilis sp. vulgatis 1563, potassium salt
  24 Hr. MIC: 0.25 µg/mL
[25]; agar dilution, 37° C., Bacteroides fragilis sp. fragilis 62, potassium salt
  24 Hr. MIC: 0.5 µg/mL
[26]; agar dilution, 37° C., Bacteroides fragilis sp. fragilis 106, potassium salt
  24 Hr. MIC: 0.25 µg/mL
[28]; agar dilution, 37° C., Bacteroides fragilis sp. fragilis 112, potassium salt
  24 Hr. MIC: 0.25 µg/mL
[33]; agar dilution, 37° C., Bacteroides fragilis sp. fragilis 113, potassium salt
  24 Hr. MIC: 0.5 µg/mL
[34]; agar dilution, 37° C., Bacteroides fragilis sp. thetaiotaomicron 1900A, potassium salt
  24 Hr. MIC: 0.5 µg/mL

## Cn1nc(-c2ncc([N+](=O)[O-])n2C)c(C#N)c1NC(=O)C(=O)NO [Example 9, N-[4-Cyano-1-methyl-3-(1-methyl-5-nitroimidazol-2-yl)pyrazol-5-yl]-N'-hydroxyoxamide]
Salmonella typhimurium
  Survival Ratio: 4/5
